Our source for the RP-LC retention time values is the METLIN SMRT retention time set (Domingo-Almenara et al. 2019).

This series in a line: gradient 5% acetonitrile 3 min, to 50% in 2 min, to 85% in 15 min, held 3 min, 100 µL/min. The conditions noted are these: column: Zorbax Extend-C18 2.1 x 50 mm; eluents: water / acetonitrile, 0.1% formic acid. In short, it runs like this:
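Mixtures of ~100 pure standards were chromatographed on a Zorbax Extend-C18 column (2.1 × 50 mm, 1.8 μm) at 100 μL/min using water and acetonitrile, each with 0.1% formic acid. Detection used a quadrupole time-of-flight mass spectrometer in positive and negative ionization mode, and data collection spanned 3 months. Retention time was obtained from adduct peaks picked computationally and each checked manually.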
In turn, `Cc1ccc(-c2csc(Cc3nc(-c4ccc(F)cc4)no3)n2)cc1` showed an RP-LC retention time of 1310 s.

The compound `CCc1ccccc1NC(=O)N1C[C@@H](F)C[C@H]1C(=O)N1CCc2ccccc2C1` had an RP-LC retention time of 811 s.

Regarding `CCSc1nc2ccc(NS(=O)(=O)c3ccc(F)c(F)c3)cc2s1`, the RP-LC retention time was found to be 1070 s.

The compound `Cc1cccc(OCc2nc(-c3ccc4c(c3)nnn4CCC(=O)N3CCOCC3)no2)c1` gave an RP-LC retention time of 863 s.

`CCOC(=O)c1sc2cccc(F)c2c1S(=O)(=O)N1CCN(c2ccccn2)CC1`: the RP-LC retention time is 767 s.

Regarding `CCCCNC(=O)C(C)n1nc(C)c2nn(-c3ccccc3)c(C)c2c1=O` (stereo not given), the RP-LC retention time came to 864 s.

`CCCNC(=O)N1CCCN(C2=NS(=O)(=O)C(c3ccc(C)cc3)=C2C)CC1` showed an RP-LC retention time of 776 s.

In turn, `CCc1nnc(-c2ccc3ccn(CC(=O)NCCc4ccccc4)c3c2)o1` yielded an RP-LC retention time of 836 s.

In turn, `Cc1ccc(-c2coc(-c3cccc(NS(=O)(=O)c4cccc5nsnc45)c3)n2)cc1` came in with an RP-LC retention time of 1180 s.

For the compound `CCn1cc(CCNS(=O)(=O)CC)c2cccnc21`, the RP-LC retention time came out at 630 s.

For `CC(C)NC(=O)Cn1nc2c3cc(-c4ccc(F)cc4)nn3ccn2c1=O`, the RP-LC retention time was 785 s.

For the compound `COc1ccc(CNS(=O)(=O)c2cc3n(c2)CCN(C(C)C)C3=O)cc1`, the RP-LC retention time was 712 s.

In turn, `Cc1nnc2c(NC(=O)c3ccsc3)cccn12` returned an RP-LC retention time of 606 s.

Consider `COc1ccc(C(=O)N2CCC3(C2)C(=O)N(C)c2ccccc23)cc1` (stereo not given), for which the RP-LC retention time was 743 s.

For the compound `O=C1NCCOCCN(C(=O)Nc2ccccc2)[C@@H]2CCCC[C@H]12`, the RP-LC retention time was 741 s.

In turn, `O=C(NCc1ccc(F)cc1F)C1CCCN(c2ccc(-c3ccccc3)nn2)C1` (stereo not given) returned an RP-LC retention time of 722 s.

Turning to `CCS(=O)(=O)N1CC(=O)N(c2ccc(F)cc2)C(C)(C(=O)NCc2ccccc2)C1` (stereo not given), the RP-LC retention time worked out at 778 s.

`Cc1nc(Nc2ccc(F)cn2)sc1C(=O)NCCC1=CCCCC1`: the RP-LC retention time came out at 963 s.

In turn, `Cc1ccc(NC(=O)NCC(c2cccnc2)c2c[nH]c3ccccc23)cc1F` (stereo not given) returned an RP-LC retention time of 693 s.

The compound `CC(=O)Nc1ccc(S(=O)(=O)Nc2ccc3c(c2)CCC(=O)N3C)cc1` gave an RP-LC retention time of 604 s.

Compound `O=C(COc1ccc2c(c1)OCO2)N1CCN(c2cc(N3CCCCC3)ncn2)CC1` had an RP-LC retention time of 587 s.

In turn, `CN(C)C(=O)CN1C(=O)COc2ccc(C(=O)N3CCN(c4ccccc4)CC3)cc21` had an RP-LC retention time of 702 s.

On to `CCc1noc(NC(C)=O)c1-c1ccc(OC)c(S(=O)(=O)Nc2cccc(OC)c2)c1`, for which the RP-LC retention time was 754 s.

As for `CC(C)N1C(=O)c2cccnc2Sc2cc(NC(=O)c3cc(Cl)ccc3F)ccc21`, the RP-LC retention time worked out at 973 s.

Turning to `CN1CCCN(C(=O)c2cn3ccnc(-c4ccccc4)c3n2)CC1`, the RP-LC retention time came to 710 s.

As for `O=C(c1ccccc1Cl)N1CCN(C(=O)c2nnn3c2COC(c2ccccc2)C3)CC1` (stereo not given), the RP-LC retention time worked out at 858 s.

Compound `Cc1nc(-c2noc(-c3ccc(F)cc3)n2)cn1CC(=O)NCc1ccccc1F` registered an RP-LC retention time of 824 s.

For `COc1ccc(-c2nn3c(N4CCN(c5ccccn5)CC4)cc(C)nc3c2C)cc1OC`, the RP-LC retention time came out at 606 s.

Turning to `COc1ccc(C(=O)N2CCc3ccc(C(=O)O)cc32)cc1`, the RP-LC retention time is 741 s.

Take `O=C(C1CC(=O)N(c2ccc(F)cc2)C1)N1CCN(CCn2cccn2)CC1` (stereo not given): the RP-LC retention time came to 556 s.

`Cc1ccsc1CN1CCCC(c2nc(-c3cccnc3)n[nH]2)C1` (stereo not given): the RP-LC retention time amounted to 561 s.

Take `COc1ccc(-c2nc3cccnc3n2C2CCN(C(=O)NCC(C)C)C2)cc1` (stereo not given): the RP-LC retention time worked out at 680 s.

Compound `Cc1nnc(NC(=O)CNC(=O)c2ccc(=O)[nH]c2)s1` showed an RP-LC retention time of 520 s.

On to `CCOc1ccc(C(=O)NCc2c(C)noc2C)cc1`, for which the RP-LC retention time came to 733 s.

Compound `CCCn1c(-c2cccc(C(=O)N3CCC4(CC3)OCCO4)c2)nc2cccnc21` displayed an RP-LC retention time of 684 s.

In the case of `CCC(CC)C(=O)N1CCN(c2nc(CN3CCOCC3)cs2)CC1`, the RP-LC retention time turned out to be 597 s.

`COc1cc2c(cc1OC)C(C(=O)Nc1ccc(C(C)C)cc1)C(c1cccnc1)N(C)C2=O` (stereo not given) gave an RP-LC retention time of 720 s.

In turn, `CC1(C)C(=O)N(CC(=O)Nc2ccc(F)cc2)c2ccccc21` yielded an RP-LC retention time of 866 s.

`CCn1ccc(C(=O)N2CCCn3nc(-c4ccc(C)cc4)cc3C2)n1`: the RP-LC retention time came out at 805 s.

`Cc1ccc(-c2cc(C(=O)NC3CCCCC3)c(C)[nH]2)cc1C`: the RP-LC retention time is 1020 s.

As for `CC1(C)C(=O)N(CC(=O)Nc2ccccc2F)c2ccccc21`, the RP-LC retention time was found to be 869 s.

As to `COc1ccc(N2CCN(C(=O)CCC(=O)N3CCCn4nc(C)cc43)CC2)cc1`, the RP-LC retention time is 606 s.

`O=C(Cc1ccccc1Cl)Nc1nnc(C2CC(=O)N(c3ccc(F)cc3)C2)o1` (stereo not given) yielded an RP-LC retention time of 705 s.

For `O=c1c(NCCc2ccccc2)nc2ccncc2n1Cc1ccccc1`, the RP-LC retention time amounted to 742 s.

Consider `CCN1C(=O)COc2ccc(-c3noc(-c4ccc(Cl)cc4)n3)cc21`, for which the RP-LC retention time worked out at 1220 s.

Turning to `CC1CN(C(=O)Cn2cc(SCC(=O)N3CCCCCC3)c3ccccc32)CC(C)O1` (stereo not given), the RP-LC retention time came out at 889 s.

Take `CC(NC(=O)c1ccccc1)C(=O)N1CCN(c2cc(C(C)C)n3cnnc3n2)CC1` (stereo not given): the RP-LC retention time turned out to be 604 s.

Turning to `CC1CCCCN1CCNC(=O)CCC(=O)N1CCc2c(c(C(=O)N3CCCCC3)nn2C)C1` (stereo not given), the RP-LC retention time was found to be 585 s.

As to `COc1cccc(CN2CCC(N3CC4(CCCCC4)C3c3ccccc3)CC2)c1OC` (stereo not given), the RP-LC retention time turned out to be 624 s.

With `Cc1cccc(NC(=O)c2cn3c(n2)CCCC3)c1C`, the RP-LC retention time came to 603 s.

As to `N#CCCSc1ccccc1NC(=O)c1ccc([N+](=O)[O-])s1`, the RP-LC retention time came to 846 s.

As for `COC(=O)CC(=O)Nc1cc2c(cc1N1CCCCC1)n(C)c(=O)n2C`, the RP-LC retention time stood at 641 s.

As for `Cn1cc(-c2nc(C(=O)Nc3ccc(Cl)cc3F)cs2)c2cccnc21`, the RP-LC retention time was 1260 s.

`COc1ccc(-c2noc(C3CCCN3C(=O)Nc3ccccc3OC)n2)cc1` (stereo not given) displayed an RP-LC retention time of 826 s.

With `Cc1nn2c(CNS(=O)(=O)c3ccccc3)c(-c3ccccc3)nc2s1`, the RP-LC retention time came out at 818 s.

For the compound `O=C(Nc1ccc2c(c1)C(=O)N1CCCCC1CCO2)c1ccc2nsnc2c1` (stereo not given), the RP-LC retention time came out at 800 s.

For the compound `Cc1cccc(NC(=O)Cn2nc(C(=O)N3CCCC3)c3ccccc32)c1`, the RP-LC retention time was 842 s.

Consider `CCCN1C(=O)C(CC(=O)NC2CCCCC2)Sc2ncccc21` (stereo not given), for which the RP-LC retention time amounted to 803 s.

`COc1ccc2[nH]cc(CCNC(=O)Cn3nc(C)c4nn(-c5ccccc5)c(C)c4c3=O)c2c1` yielded an RP-LC retention time of 817 s.

Regarding `CCc1nnc(-c2cccnc2N2CCN(C(=O)Nc3cc(F)cc(F)c3)CC2)o1`, the RP-LC retention time was 850 s.

`CCc1ccc(CNC(=O)c2cccc(C3CCCN(C(=O)NC)C3)c2)cc1` (stereo not given): the RP-LC retention time is 854 s.

`O=C1CCCc2cc(S(=O)(=O)N3CCC(C(=O)NCc4ccc5c(c4)OCO5)CC3)ccc2N1`: the RP-LC retention time amounted to 706 s.

Compound `Nc1c(C(=O)NCc2ccc3c(c2)OCO3)nsc1C(=O)N1CCN(c2ccccn2)CC1` returned an RP-LC retention time of 663 s.

In the case of `Cc1csc(-c2cc(S(=O)(=O)N3CCOCC3)cn2CC(=O)N2CCCC2)n1`, the RP-LC retention time is 770 s.

Regarding `CCCCCN1CC(=O)N(c2cccc(Cl)c2)[C@@H]2CS(=O)(=O)C[C@@H]21`, the RP-LC retention time was 854 s.

Take `O=C(NCCCN1CCOCC1)c1csc(-c2ccc(N3CCCC3)nc2)n1`: the RP-LC retention time came out at 553 s.

On to `CC(O)(CCc1ccccc1)CNC(=O)c1ccc(F)cc1` (stereo not given), for which the RP-LC retention time amounted to 758 s.

For `Cc1cccc(C)c1NC(=O)Cn1c(=O)n(-c2ccccc2)c(=O)c2c1cc(C)n2C`, the RP-LC retention time amounted to 864 s.

For the compound `CN(c1nc(-c2ccc(Cl)cc2)nc2ccccc12)C1CCCCC1`, the RP-LC retention time came out at 941 s.

The compound `CN1C(C)(C)CCCC1(C)C` returned an RP-LC retention time of 614 s.

The compound `CCCn1c(=O)c(C)nc2cc(-c3noc(-c4ccc(OC)c(OC)c4)n3)ccc21` registered an RP-LC retention time of 1090 s.

Consider `Cc1ccc(Nc2c(-c3cccc(Br)c3)nc3cccc(C)n23)cc1`, for which the RP-LC retention time is 826 s.

For the compound `Cc1ccc2nc(CN3CCN(C(=O)Nc4ccc(F)cc4F)CC3)oc2c1`, the RP-LC retention time was found to be 706 s.

`CN1CCN(c2ccc(NC(=O)c3ccc(Br)cc3)c(C(=O)O)c2)CC1` registered an RP-LC retention time of 653 s.

`Cc1ccc(NC(=O)N2CCCC2c2nc(-c3ccccc3C)no2)cc1C` (stereo not given): the RP-LC retention time worked out at 593 s.

On to `Cc1ccc(-c2noc(CN3N=NC4C(=O)N(c5ccc(C(C)C)cc5)C(=O)C43)n2)cc1` (stereo not given), for which the RP-LC retention time was found to be 1150 s.

`Cc1nc(-c2cccnc2)nc2c1CCC(=O)N2Cc1ccco1`: the RP-LC retention time was found to be 681 s.

`COCc1noc([C@@H]2CC(F)(F)CN2C(=O)C(C)C)n1`: the RP-LC retention time was determined as 711 s.

The compound `CCSc1ccc(-c2cccc(NC(=O)COC)c2)nn1` came in with an RP-LC retention time of 762 s.

`CC(C)n1cnc2cc(CNC(=O)Cc3cccc(C(F)(F)F)c3)ccc21` displayed an RP-LC retention time of 680 s.
